Tests used:
JAK1 = JAK1 (Homo sapiens (Human), UniProt P23458); assay: Biochemical JAK kinase assay (LanthaScreen), JAK1; conditions: for Ki: read-out: JAK1 pKi (converted)
Summary of the method: (§1)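 LanthaScreen format: phospho-STAT1 (pTyr701) detected with 2 nM Tb antibody after 10 mM EDTA quench. Kinase step used Km-level ATP and 200 nM STAT1 peptide, 1 h at ambient after 1 h pre-incubation. Inhibition fitted to IC50, reported as pKi.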

JAK2 = JAK2 (Homo sapiens (Human), UniProt O60674); assay: Biochemical JAK kinase assay (LanthaScreen), JAK2; conditions: for Ki: read-out: JAK2 pKi (converted)
Chain of JAK2 (O60674 whole entry): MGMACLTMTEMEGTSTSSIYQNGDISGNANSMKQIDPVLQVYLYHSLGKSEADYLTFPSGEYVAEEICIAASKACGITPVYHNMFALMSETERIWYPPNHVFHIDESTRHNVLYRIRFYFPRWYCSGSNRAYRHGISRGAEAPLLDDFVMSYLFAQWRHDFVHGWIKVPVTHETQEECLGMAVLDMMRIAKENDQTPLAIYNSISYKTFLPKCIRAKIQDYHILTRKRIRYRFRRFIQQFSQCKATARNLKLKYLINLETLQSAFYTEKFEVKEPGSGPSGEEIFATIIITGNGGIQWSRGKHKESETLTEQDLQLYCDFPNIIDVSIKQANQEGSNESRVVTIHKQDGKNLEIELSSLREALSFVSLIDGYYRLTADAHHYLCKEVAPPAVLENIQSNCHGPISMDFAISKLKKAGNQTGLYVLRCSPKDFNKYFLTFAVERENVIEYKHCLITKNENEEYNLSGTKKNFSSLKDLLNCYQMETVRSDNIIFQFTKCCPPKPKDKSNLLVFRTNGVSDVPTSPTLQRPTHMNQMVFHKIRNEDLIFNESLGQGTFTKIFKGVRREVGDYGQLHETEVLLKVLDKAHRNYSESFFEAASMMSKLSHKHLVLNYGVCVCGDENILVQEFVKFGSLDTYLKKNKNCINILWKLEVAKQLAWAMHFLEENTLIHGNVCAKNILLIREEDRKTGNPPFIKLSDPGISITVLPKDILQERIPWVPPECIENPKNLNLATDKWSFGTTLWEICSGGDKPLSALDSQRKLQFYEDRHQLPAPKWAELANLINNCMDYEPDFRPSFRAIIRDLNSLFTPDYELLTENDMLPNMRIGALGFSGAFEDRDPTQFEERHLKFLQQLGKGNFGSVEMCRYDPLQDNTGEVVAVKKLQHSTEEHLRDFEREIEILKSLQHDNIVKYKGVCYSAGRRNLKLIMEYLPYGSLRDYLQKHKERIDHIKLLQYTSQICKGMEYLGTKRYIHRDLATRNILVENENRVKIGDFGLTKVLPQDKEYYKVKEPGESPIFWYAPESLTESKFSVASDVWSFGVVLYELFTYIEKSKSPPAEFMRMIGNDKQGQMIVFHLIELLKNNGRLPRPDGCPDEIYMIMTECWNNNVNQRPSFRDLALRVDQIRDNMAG
Summary of the method: as §1

[1] = system: IL-13 induced STAT6 phosphorylation in BEAS-2B human lung epithelial cells; assay: Cellular JAKI potency assay (BEAS-2B); type: cell-based; conditions: Homo sapiens, BEAS-2B, BEAS-2B cells, read-out: BEAS2B pIC50 (converted)
Summary of the method: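 BEAS-2B cells were preincubated with compound (0.1% DMSO) in HBSS/HEPES/BSA for 1 h at 37 °C, then stimulated with IL-13 (80 ng/mL before addition) for 30 min. After lysis, pSTAT6 (Tyr641) was quantified by AlphaLISA SureFire; IC50 from a 4-parameter fit of percent inhibition, reported as pIC50.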

Chain of JAK1 (P23458 whole entry): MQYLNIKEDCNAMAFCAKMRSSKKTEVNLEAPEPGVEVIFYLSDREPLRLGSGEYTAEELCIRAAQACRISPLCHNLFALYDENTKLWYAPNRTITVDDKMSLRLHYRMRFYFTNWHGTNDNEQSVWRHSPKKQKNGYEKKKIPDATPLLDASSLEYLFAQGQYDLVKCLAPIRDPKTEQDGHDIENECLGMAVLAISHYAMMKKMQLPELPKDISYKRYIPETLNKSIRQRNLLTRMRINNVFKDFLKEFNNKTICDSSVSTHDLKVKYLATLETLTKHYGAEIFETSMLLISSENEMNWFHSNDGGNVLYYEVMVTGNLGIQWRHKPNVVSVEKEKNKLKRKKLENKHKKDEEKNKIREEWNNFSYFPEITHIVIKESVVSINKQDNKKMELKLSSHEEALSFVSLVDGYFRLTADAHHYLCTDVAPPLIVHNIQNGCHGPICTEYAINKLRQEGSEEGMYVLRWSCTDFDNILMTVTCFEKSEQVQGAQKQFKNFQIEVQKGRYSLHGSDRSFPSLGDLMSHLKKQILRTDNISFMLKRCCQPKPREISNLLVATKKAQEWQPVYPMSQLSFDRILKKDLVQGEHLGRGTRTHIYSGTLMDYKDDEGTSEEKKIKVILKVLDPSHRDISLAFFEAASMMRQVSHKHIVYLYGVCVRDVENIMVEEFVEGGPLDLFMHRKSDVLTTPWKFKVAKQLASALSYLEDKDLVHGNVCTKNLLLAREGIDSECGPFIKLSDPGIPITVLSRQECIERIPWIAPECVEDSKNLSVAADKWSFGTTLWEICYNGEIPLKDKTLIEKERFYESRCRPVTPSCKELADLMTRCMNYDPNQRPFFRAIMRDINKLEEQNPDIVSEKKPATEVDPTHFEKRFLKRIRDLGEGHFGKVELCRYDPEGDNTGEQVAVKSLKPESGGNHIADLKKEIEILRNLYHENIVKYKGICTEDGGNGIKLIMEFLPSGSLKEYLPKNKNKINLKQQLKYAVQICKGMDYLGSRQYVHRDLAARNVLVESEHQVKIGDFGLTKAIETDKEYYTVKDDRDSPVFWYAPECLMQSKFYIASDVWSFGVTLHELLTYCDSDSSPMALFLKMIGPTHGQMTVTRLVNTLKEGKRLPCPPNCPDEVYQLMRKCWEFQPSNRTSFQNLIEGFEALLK

Row | Compound | Ki (JAK1) | Ki (JAK2) | IC50 [1] | JAK1 pKi (JAK1) | JAK2 pKi (JAK2)
1 | CCc1cc(O)ccc1-c1ccc2c(-c3nc(C4=CCN(CCc5ccccc5)C4)c[nH]3)n[nH]c2c1 [Example 141] | 0.1 to 1 nM | 0.1 to 1 nM | 100 to 316 nM |  | 
2 | CCc1cc(O)ccc1-c1ccc2c(-c3nc(C4=CCN(Cc5cnc[nH]5)C4)c[nH]3)n[nH]c2c1 [Example 142] |  |  | 10 to 31.6 nM | A (A represents a pKi value ≥10 (Ki≤0.1 nM)) | A (A represents a pKi value ≥10 (Ki≤0.1 nM))
3 | CCc1cc(O)ccc1-c1ccc2c(-c3nc(C4=CCN(Cc5ccn[nH]5)C4)c[nH]3)n[nH]c2c1 [Example 143] |  |  | 10 to 31.6 nM | A (A represents a pKi value ≥10 (Ki≤0.1 nM)) | A (A represents a pKi value ≥10 (Ki≤0.1 nM))
4 | CCc1cc(O)ccc1-c1ccc2c(-c3nc(C4=CCN(Cc5c[nH]nn5)C4)c[nH]3)n[nH]c2c1 [Example 144] |  |  | 10 to 31.6 nM | A (A represents a pKi value ≥10 (Ki≤0.1 nM)) | A (A represents a pKi value ≥10 (Ki≤0.1 nM))
5 | CCc1cc(O)ccc1-c1ccc2c(-c3nc(C4=CCN(Cc5cn[nH]c5)C4)c[nH]3)n[nH]c2c1F [Example 145] |  |  | 10 to 31.6 nM | A (A represents a pKi value ≥10 (Ki≤0.1 nM)) | A (A represents a pKi value ≥10 (Ki≤0.1 nM))
6 | CCc1cc(O)ccc1-c1ccc2c(-c3nc(C4=CCN(Cc5c[nH]nn5)C4)c[nH]3)n[nH]c2c1F [Example 146] | 0.1 to 1 nM | 0.1 to 1 nM | 10 to 31.6 nM |  | 
7 | CCc1cc(O)ccc1-c1ccc2c(-c3nc(C4=CCN(C(C)=O)CC4)c[nH]3)n[nH]c2c1 [Example 147] | 0.1 to 1 nM | 0.1 to 1 nM | 10 to 31.6 nM |  | 
8 | CCc1cc(O)ccc1-c1ccc2c(-c3nc(C4=CCN(S(C)(=O)=O)CC4)c[nH]3)n[nH]c2c1 [Example 148] | 0.1 to 1 nM | 0.1 to 1 nM | 10 to 31.6 nM |  | 
9 | CCc1cc(O)ccc1-c1ccc2c(-c3nc(C4=CCN(C(=O)OC)CC4)c[nH]3)n[nH]c2c1 [Example 149] | 1 to 10 nM | 1 to 10 nM | 31.6 to 100 nM |  | 
10 | CCc1cc(O)ccc1-c1ccc2c(-c3nc(C4=CCN(C(=O)NC)CC4)c[nH]3)n[nH]c2c1 [Example 150] | 0.1 to 1 nM | 0.1 to 1 nM | 10 to 31.6 nM |  | 
11 | CCc1cc(O)ccc1-c1ccc2c(-c3nc(C4=CCN(C(=O)c5ccccc5)CC4)c[nH]3)n[nH]c2c1 [Example 151] | 1 to 10 nM | 1 to 10 nM | 31.6 to 100 nM |  | 
12 | CCc1cc(O)ccc1-c1ccc2c(-c3nc(C4=CCN(C(C)=O)CC4)c[nH]3)n[nH]c2c1F [Example 154] | 0.1 to 1 nM | 0.1 to 1 nM | 10 to 31.6 nM |  | 
13 | CCc1cc(O)ccc1-c1ccc2c(-c3nc(C4=CCN(S(C)(=O)=O)CC4)c[nH]3)n[nH]c2c1F [Example 155] | 1 to 10 nM | 0.1 to 1 nM | 10 to 31.6 nM |  | 
14 | CCc1cc(O)ccc1-c1ccc2c(-c3nc(C4=CCN(C(=O)OC)CC4)c[nH]3)n[nH]c2c1F [Example 156] | 1 to 10 nM | 0.1 to 1 nM | 31.6 to 100 nM |  | 
15 | CCc1cc(O)ccc1-c1ccc2c(-c3nc(C4=CCCN(C(C)=O)C4)c[nH]3)n[nH]c2c1 [Example 159] | 0.1 to 1 nM | 0.1 to 1 nM | 10 to 31.6 nM |  | 
16 | CCc1cc(O)ccc1-c1ccc2c(-c3nc(C4=CCCN(S(C)(=O)=O)C4)c[nH]3)n[nH]c2c1 [Example 160] | 0.1 to 1 nM | 0.1 to 1 nM | 10 to 31.6 nM |  | 
17 | CCc1cc(O)ccc1-c1ccc2c(-c3nc(C4=CCCN(C(=O)OC)C4)c[nH]3)n[nH]c2c1 [Example 161] | 0.1 to 1 nM | 1 to 10 nM | 31.6 to 100 nM |  | 
18 | CCc1cc(O)ccc1-c1ccc2c(-c3nc(C4=CCCN(C(=O)NC)C4)c[nH]3)n[nH]c2c1 [Example 162] | 0.1 to 1 nM | 0.1 to 1 nM | 31.6 to 100 nM |  | 
19 | CCc1cc(O)ccc1-c1ccc2c(-c3nc(C4=CCCN(C(=O)c5ccccc5)C4)c[nH]3)n[nH]c2c1 [Example 163] | 1 to 10 nM | 1 to 10 nM | 31.6 to 100 nM |  | 
20 | CCc1cc(O)ccc1-c1ccc2c(-c3nc(C4=CCCN(C(=O)CN)C4)c[nH]3)n[nH]c2c1 [Example 164] | 0.1 to 1 nM | 0.1 to 1 nM | 10 to 31.6 nM |  | 
21 | CCc1cc(O)ccc1-c1ccc2c(-c3nc(C4=CCN(C(C)=O)C4)c[nH]3)n[nH]c2c1 [Example 166] |  |  | 3.16 to 10 nM | A (A represents a pKi value ≥10 (Ki≤0.1 nM)) | A (A represents a pKi value ≥10 (Ki≤0.1 nM))
22 | CCc1cc(O)ccc1-c1ccc2c(-c3nc(C4=CCN(S(C)(=O)=O)C4)c[nH]3)n[nH]c2c1 [Example 167] | 0.1 to 1 nM | 1 to 10 nM | 3.16 to 10 nM |  | 

— patent US20240092758A1, “IMIDAZOLO INDAZOLE COMPOUNDS AS JAK INHIBITORS” (Theravance Biopharma R&D IP, LLC, priority 2021, published 2024)
